Experimental data published in patent US4568490A, “Aminopropylaminobleomycin derivatives and process for preparation thereof” (Zaidan Hojin Biseibutsu Kagaku Kenkyu Kai, priority 1981, dated 1986).

Tests used:
Bacillus subtilis = assay: Antimicrobial activity, agar plate-cylinder method; assay type: cell-based; details: Cu-free form; bleomycin A2 (Cu-free form) standard assumed 1,000 mcg/mg
Method: (1) Antimicrobial activity against Mycobacterium smegmatis ATCC 697 and Bacillus subtilis.
(§1) The activity was assayed against the above test microorganisms by the method of agar plate-cylinder, assuming the potency of bleomycin A2 (Cu-free form), used as standard, to be 1,000 mcg/mg.

ICR mice = assay: Pulmonary toxicity (pulmonary fibrosis) in mice, intratracheal instillation; assay type: in vivo; details: 16 μg/50 μl/mouse intratracheally, sacrificed 4 weeks after instillation; for Grade: total score of pulmonary fibrosis/total number of samples: score 0-6 points
Method: Male 15 weeks old ICR mice were used. Sixteen μg/50 μl/mouse of each test sample was intratracheally instilled. The mice were sacrificed 4 weeks after instillation to examine the incidence and grade of pulmonary fibrosis. The evaluation was made by comparing the number of administered mice suffering from pulmonary fibrosis and the grade of the disease.
In Tables 4A and 4B, the grade was numerically rated as follows:
1 point: Accumulation of exudate in pulmonary alveoli and fibrosis-like change in alveolar septum.
2 points: Fibrosis in several areas.
4 points: Scattered fibrosis.
6 points: Fibrosis in more than two-thirds of the total area.

[1] = test system: Lymphocytic leukemia P-388; assay: In vivo antitumor activity, murine lymphocytic leukemia P-388; details: BDF1-SLC mice, i.p. transplant, once daily for 9 days, 30 days observation; T/C more than 130 effective
Method: The following data with respect to the testing of a group of the presently claimed substances in vivo according to a standard test method involving murine lymphocytic leukemia P-388 is presented to lend further assurance as to the utility of the compounds as inhibitors of mammalian tumors.
Lymphocytic leukemia P-388 cells (1×10^5 /0.2 ml) were transplanted intraperitoneally into male BDF1 -SLC mice (5 mice/group). Each of the compounds of this invention was diluted with physiological saline to various concentrations. Each dilution was administered at a dose of 0.1 ml/10 g of body weight once daily for 9 days, starting on the day after the day of the transplantation. The mice of the control group were administered physiological saline.
The average number of days that the group receiving the compound of this invention survived was calculated. The figure obtained was divided by the average number of survival days for the control group, and was multiplied by 100 (T/C (%)).
T/C value more than 130 was considered to be effective.

[2] = test system: Mycobacterium smegmatis ATCC 607; assay: Antimicrobial activity, agar plate-cylinder method; assay type: cell-based; details: Cu-free form; bleomycin A2 (Cu-free form) standard assumed 1,000 mcg/mg
Method: as §1

Hela S3 cells = assay: Growth inhibitory activity against Hela S3 cells; assay type: cell-based; details: Cu-free form; Hela S3, 3 days incubation with compound
Method: The percentage growth inhibition was calculated using the equation: […] wherein A is the ultimate number of cells on the third day from the addition of a test sample, B is the ultimate number of cells in the control (without the addition of test sample), and C is the number of cells on the day of addition of the test sample.

ICR strain mice = assay: Pulmonary toxicity (pulmonary fibrosis) in mice, intraperitoneal injection; assay type: in vivo; details: 5 mg/kg i.p. once a day for 10 days; for Grade of pulmonary fibrosis, % / Incidence of pulmonary fibrosis, % / Incidence: number of mice suffering from pulmonary fibrosis / Grade: total score of pulmonary fibrosis/total number of test animal: autopsy after 5 weeks; for Incidence: number of mice suffering from pulmonary fibrosis: affected/total mice; for Grade: total score of pulmonary fibrosis/total number of test animal: score 0-6 points; for Grade of pulmonary fibrosis, Ratio / Incidence of pulmonary fibrosis, Ratio: reference of the ratio not stated
Summary of the method: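 Male ICR mice, 15 weeks old, 9 per group, received 5 mg/kg intraperitoneally once daily for 10 days. They were autopsied after 5 weeks' observation for pulmonary fibrosis incidence and grade: 1, alveolar exudate/septal fibrosis-like change; 2, fibrosis in several areas; 4, scattered fibrosis; 6, fibrosis over >2/3 of area.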

[3] = test system: CDF1 /SLC strain male mice; assay: Acute toxicity, LD50 on 10 consecutive days; assay type: in vivo; details: subcutaneous, Behrens-Karber method
Method: LD50 was assayed by administering several representative compounds of this invention for 10 consecutive days.
CDF1 /SLC strain male mice (each 6 weeks old, 7 members per group) were subcutaneously administered with various compounds of this invention, the dose being different with each compound. LD50 (daily dose) was estimated from the mortality during the administration period by the Behrens-Karber method.

Row | Structure (SMILES) | Antimicrobial potency of Cu--free compound, against Bacillus subtilis (Bacillus subtilis) | Grade of pulmonary fibrosis, % (ICR mice) | Incidence of pulmonary fibrosis, % (ICR mice) | Incidence: number of mice with pulmonary fibrosis/number of mice (ICR mice) | Grade: total score of pulmonary fibrosis/total number of samples (ICR mice) | Max. T/C on Mouse Lymphocytic Leukemia P 388 [1] | Antimicrobial potency of Cu--free compound, against Mycobacterium smegmatis ATCC 607 [2] | 50% growth inhibition concentration (ID50) of Cu--free compound against cultured Hela cell (Hela S3 cells) | Grade of pulmonary fibrosis, % (ICR strain mice) | Incidence of pulmonary fibrosis, % (ICR strain mice) | Incidence: number of mice suffering from pulmonary fibrosis (ICR strain mice) | Grade: total score of pulmonary fibrosis/total number of test animal (ICR strain mice) | Grade of pulmonary fibrosis, Ratio (ICR strain mice) | Incidence of pulmonary fibrosis, Ratio (ICR strain mice) | LD50 (daily dose) [3]
1 | Cc1c(N)nc(C(CC(N)=O)NCC(N)C(N)=O)nc1C(=O)NC(C(=O)NC(C)C(O)C(C)C(=O)NC(C(=O)NCCc1nc(-c2nc(C(=O)NCCC[N+](C)(CCCN(Cc3ccccc3)Cc3ccccc3)Cc3ccccc3)cs2)cs1)C(C)O)C(OC1OC(CO)C(O)C(O)C1OC1OC(CO)C(O)C(OC(N)=O)C1O)c1cnc[nH]1 (stereo not shown) [compound 39, 3-{N--Methyl-N--benzyl-N--[3'-(dibenzylamino)propyl]amino}propylaminoBLM] | 580 mcg potency per mg | 15% | 22% | 2/9 | 4/27 | 163% | 7746 mcg potency per mg | 2.30 mg/L | 0% | 0% | 0/9 | 0/27 | 0.00 | 0.00 | –
2 | Cc1c(N)nc(C(CC(N)=O)NCC(N)C(N)=O)nc1C(=O)NC(C(=O)NC(C)C(O)C(C)C(=O)NC(C(=O)NCCc1nc(-c2nc(C(=O)NCCCN(C)CCCNCC3CCCCCCCCCC3)cs2)cs1)C(C)O)C(OC1OC(CO)C(O)C(O)C1OC1OC(CO)C(O)C(OC(N)=O)C1O)c1cnc[nH]1 (stereo not shown) [Compound No. 32, 3-{N--Methyl-N--[3'-(cycloundecanylmethylamino)propyl]amino}propylaminoBLM] | 8146 mcg potency per mg | – | – | – | – | 166% | 28308 mcg potency per mg | 0.58 mg/L | 0% | 0% | 0/9 | 0/27 | 0.00 | 0.00 | 17.5 mg/kg/day
3 | CC[N+](CC)(CCCNC(=O)c1csc(-c2csc(CCNC(=O)C(NC(=O)C(C)C(O)C(C)NC(=O)C(NC(=O)c3nc(C(CC(N)=O)NCC(N)C(N)=O)nc(N)c3C)C(OC3OC(CO)C(O)C(O)C3OC3OC(CO)C(O)C(OC(N)=O)C3O)c3cnc[nH]3)C(C)O)n2)n1)CCCN(Cc1ccccc1)Cc1ccccc1 (stereo not shown) [Compound No. 37, 3-[N,N-diethyl-N-(3'-dibenzylamino)propyl]aminopropylaminobleomycin] | 1047 mcg potency per mg | – | – | – | – | 168% | 10680 mcg potency per mg | 0.70 mg/L | – | – | – | – | – | – | 50.0 mg/kg/day
4 | Cc1c(N)nc(C(CC(N)=O)NCC(N)C(N)=O)nc1C(=O)NC(C(=O)NC(C)C(O)C(C)C(=O)NC(C(=O)NCCc1nc(-c2nc(C(=O)NCCC[N+](C)(C)CCCN(Cc3ccccc3)Cc3ccccc3)cs2)cs1)C(C)O)C(OC1OC(CO)C(O)C(O)C1OC1OC(CO)C(O)C(OC(N)=O)C1O)c1cnc[nH]1 (stereo not shown) [compound 35, 3-{N,N--Dimethyl-N--[3'-(dibenzylamino)propyl]amino}propylaminoBLM] | 1742 mcg potency per mg | 8% | 25% | 2/8 | 2/24 | 153% | 13784 mcg potency per mg | 0.87 mg/L | 0% | 0% | 0/9 | 0/27 | 0.00 | 0.00 | –
5 | Cc1c(N)nc(C(CC(N)=O)NCC(N)C(N)=O)nc1C(=O)NC(C(=O)NC(C)C(O)C(C)C(=O)NC(C(=O)NCCc1nc(-c2nc(C(=O)NCCCN(C)CCCN(Cc3ccccc3)Cc3ccccc3)cs2)cs1)C(C)O)C(OC1OC(CO)C(O)C(O)C1OC1OC(CO)C(O)C(OC(N)=O)C1O)c1cnc[nH]1 (stereo not shown) [compound 27, 3-{N--Methyl-N--[3'-(dibenzylamino)propyl]amino}propylaminoBLM] | 1138 mcg potency per mg | 7% | 22% | 2/9 | 2/27 | 149% | 14194 mcg potency per mg | 0.89 mg/L | 7% | 20% | 1/5 | 1/15 | 0.08 | 0.32 | –
6 | Cc1c(N)nc(C(CC(N)=O)NCC(N)C(N)=O)nc1C(=O)NC(C(=O)NC(C)C(O)C(C)C(=O)NC(C(=O)NCCc1nc(-c2nc(C(=O)NCCCN(C)CCCNCc3ccc(OCc4ccccc4)c(OCc4ccccc4)c3)cs2)cs1)C(C)O)C(OC1OC(CO)C(O)C(O)C1OC1OC(CO)C(O)C(OC(N)=O)C1O)c1cnc[nH]1 (stereo not shown) [compound 15] | 1772 mcg potency per mg | 4% | 13% | 1/8 | 1/24 | 165% | 4516 mcg potency per mg | 0.36 mg/L | 4% | 11% | 1/9 | 1/27 | 0.05 | 0.18 | –
7 | CC[N+](CC)(CCCNCCc1ccc(Cl)cc1)CCCNC(=O)c1csc(-c2csc(CCNC(=O)C(NC(=O)C(C)C(O)C(C)NC(=O)C(NC(=O)c3nc(C(CC(N)=O)NCC(N)C(N)=O)nc(N)c3C)C(OC3OC(CO)C(O)C(O)C3OC3OC(CO)C(O)C(OC(N)=O)C3O)c3cnc[nH]3)C(C)O)n2)n1 (stereo not shown) [compound 46, 3-{N,N--Diethyl-N--[3'-(2"-p-chlorophenylethylamino)propyl]amino}propylaminoBLM] | 13310 mcg potency per mg | – | – | – | – | 150% | 17480 mcg potency per mg | 0.52 mg/L | 0% | 0% | 0/9 | 0/27 | 0.00 | 0.00 | –
